The conditions of experiment [1]: associated with a 1000-mg calcium intake increase; women of various ages; estimate; cited from earlier work.
Experiment [2] can be described thus: double blind three-week study of calcium retention and absorption, inulin delivered in a RTE cereal (mass balance, stable isotope enrichment). The class given is in vivo, human. Particulars: adolescent girls, ages 11-13, roughly 1600 mg calcium per day and 9 grams of inulin, three weeks. As for the experimental part:
In one double blind study ranging over a period of three weeks, a number of adolescent girls, ages 11-13, were provided with a diet containing roughly 1600 mg/calcium per day and 9 grams of inulin. The diet was delivered as part of a RTE cereal and the amount of calcium retention and absorption was measured by mass balance and stable isotope enrichment. Stool and urine samples were collected and analyzed for calcium excretion by atomic absorption spectrometry. Calcium retention was calculated as: Diet Ca−urine Ca−fecal Ca. Blood samples were also taken at prescribed intervals and serum and urine were analyzed for Ca by plasma mass spectrometry. The results of the analysis provided that inulin had no effect on the retention or absorption of calcium by subjects in this particular demographic.

Experiment [3] in a line: calcium absorbed and retained in postmenopausal women versus placebo. It is filed as in vivo, human. Particulars: inulin in a food product. The source says: It is believed that food products prepared in accordance with the present invention, would however provide an enhanced benefit to certain selected demographic sections of the population, namely postmenopausal women.

As to `[Ca+2]` [calcium], the “decrease in mean body weight” value in experiment [1] is 8 kg.

Turning to inulin, in experiment [2], the “effect on absorption of calcium” value was “no effect” and the “effect on retention of calcium” value is listed as “no effect”. In addition, in experiment [3], the “level of calcium absorbed and retained versus placebo” value is given as “higher”.

The values are drawn from US20040037868A1, “Select prebiotics for use in weight attenuation message and method of communication” (priority 2002, published 2004).
